In patent US10065971B2 (priority 2014, dated 2018):

Biological target: human σ1 receptor (Homo sapiens, UniProt Q99720)
Assay: biochemical
Set-up: μ and σ1 dual binding: scale not given here
Settings: combined class from Ki at human σ1 receptor (A1) and Ki at human μ-opioid receptor (A2), radioligand binding; for Ki: read-out: μ and σ1 dual binding
Method: Biological Activity Pharmacological Study Human σ1 Receptor Radioligand Assay
The assay was carried out with 7 μg of membrane suspension, 5 nM of [^3H](+)-pentazocine in either absence or presence of either buffer or 10 μM Haloperidol for total and non-specific binding, respectively. Binding buffer contained Tris-HCl 50 mM at pH 8. Plates were incubated at 37° C. for 120 minutes. After the incubation period, the reaction mix was then transferred to MultiScreen HTS, FC plates (Millipore), filtered and plates were washed 3 times with ice-cold 10 mM Tris-HCL (pH7.4). Filters were dried and counted at approximately 40% efficiency in a MicroBeta scintillation counter (Perkin-Elmer) using EcoScint liquid scintillation cocktail

human σ1 receptor, sequence (Q99720 whole entry): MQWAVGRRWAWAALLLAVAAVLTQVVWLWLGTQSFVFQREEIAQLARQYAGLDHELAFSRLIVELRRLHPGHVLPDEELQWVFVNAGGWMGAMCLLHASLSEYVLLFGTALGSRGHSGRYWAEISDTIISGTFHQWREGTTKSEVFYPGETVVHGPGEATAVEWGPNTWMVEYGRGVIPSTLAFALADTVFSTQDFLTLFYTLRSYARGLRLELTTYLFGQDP

Ki [nM]	SMILES	μ and σ1 dual binding
	C[C@@H]1CN(C(=O)c2ccccc2F)CC2(CCN(CCc3ncccc3F)CC2)O1 [Example 143, (R)-(2-fluorophenyl)(9-(2-(3-fluoropyridin-2-yl)ethyl)-2-methyl-1-oxa-4,9-diazaspiro[5.5]undecan-4-yl)methanone]	++
	C[C@H]1CN(C(=O)c2ccccc2F)CC2(CCN(CCc3ncccc3F)CC2)O1 [Example 144, (S)-(2-fluorophenyl)(9-(2-(3-fluoropyridin-2-yl)ethyl)-2-methyl-1-oxa-4,9-diazaspiro[5.5]undecan-4-yl)methanone]	++
	C[C@@H]1CN(C(=O)c2c(F)cccc2F)CC2(CCN(CCc3ncccc3F)CC2)O1 [Example 145, (R)-(2,6-difluorophenyl)(9-(2-(3-fluoropyridin-2-yl)ethyl)-2-methyl-1-oxa-4,9-diazaspiro[5.5]undecan-4-yl)methanone]	++
	C[C@H]1CN(C(=O)c2c(F)cccc2F)CC2(CCN(CCc3ncccc3F)CC2)O1 [Example 146, (S)-(2,6-difluorophenyl)(9-(2-(3-fluoropyridin-2-yl)ethyl)-2-methyl-1-oxa-4,9-diazaspiro[5.5]undecan-4-yl)methanone]	++
> 500	CC1CN(C(=O)c2cccc(F)c2F)CC2(CCN(CCc3ncccc3F)CC2)O1 (stereo not shown) [Example 147, (2,3-difluorophenyl)(9-(2-(3-fluoropyridin-2-yl)ethyl)-2-methyl-1-oxa-4,9-diazaspiro[5.5]undecan-4-yl)methanone]	
> 500	CC1CN(C(=O)c2ccc(F)cc2F)CC2(CCN(CCc3ncccc3F)CC2)O1 (stereo not shown) [Example 148, (2,4-difluorophenyl)(9-(2-(3-fluoropyridin-2-yl)ethyl)-2-methyl-1-oxa-4,9-diazaspiro[5.5]undecan-4-yl)methanone]	
> 500	CC1CN(C(=O)c2cccc(F)c2)CC2(CCN(CCc3ncccc3F)CC2)O1 (stereo not shown) [Example 151, (3-fluorophenyl)(9-(2-(3-fluoropyridin-2-yl)ethyl)-2-methyl-1-oxa-4,9-diazaspiro[5.5]undecan-4-yl)methanone]	
